In ChEMBL document CHEMBL3132801, “Meridianin G and its analogs as antimalarial agents” (Medchemcomm, 2013):
≈ marks a conversion by molar mass, not a printed value. Calls of active or inactive are those of the source. The rule behind the calls is not given here.

Columns and labels:
LLC-PK1 = assay: Cytotoxicity against a pig LLC-PK1 cells after 48 hrs by Neutral Red assay; format: cell-based; conditions: Sus scrofa, LLC-PK1, 48 h
[1] = Selectivity index, ratio of IC50 for human HepG2 cells to IC50 for Plasmodium falciparum D6; format: toxicity, cell-based; conditions: read-out: Ratio IC50
[2] = Selectivity index, ratio of IC50 for pig LLC-PK1 cells to IC50 for Plasmodium falciparum D6; format: toxicity, cell-based; conditions: read-out: Ratio IC50
[3] = Selectivity index, ratio of IC50 for african green monkey Vero cells to IC50 for Plasmodium falciparum W2; format: toxicity, cell-based; conditions: read-out: Ratio IC50
Plasmodium falciparum [4] = assay: Antimicrobial activity against Plasmodium falciparum W2 after 72 hrs by LDH activity assay; format: functional, organism-based
[5] = Selectivity index, ratio of IC50 for human HepG2 cells to IC50 for Plasmodium falciparum W2; format: toxicity, cell-based; conditions: read-out: Ratio IC50
HepG2 = assay: Cytotoxicity against human HepG2 cells after 48 hrs by Neutral Red assay; format: cell-based; conditions: HepG2, 48 h
Plasmodium falciparum [6] = assay: Antimicrobial activity against Plasmodium falciparum D6 after 72 hrs by LDH activity assay; format: functional, organism-based
[7] = Selectivity index, ratio of IC50 for african green monkey Vero cells to IC50 for Plasmodium falciparum D6; format: toxicity, cell-based; conditions: read-out: Ratio IC50
Vero = assay: Cytotoxicity against african green monkey Vero cells after 48 hrs by Neutral Red assay; format: cell-based; conditions: Chlorocebus sabaeus
[8] = Selectivity index, ratio of IC50 for pig LLC-PK1 cells to IC50 for Plasmodium falciparum W2; format: toxicity, cell-based; conditions: read-out: Ratio IC50
Leishmania donovani = assay: Antileishmanial activity against Leishmania donovani promastigotes after 48 hrs by Alamar Blue assay; format: functional, organism-based
Staphylococcus aureus [9] = assay: Antimicrobial activity against Staphylococcus aureus by NCCLS method; format: functional, organism-based
Staphylococcus aureus [10] = assay: Antimicrobial activity against methicillin-resistant Staphylococcus aureus by NCCLS method; format: functional, organism-based
Cryptococcus neoformans = assay: Antimicrobial activity against Cryptococcus neoformans by NCCLS method; format: functional, organism-based
Candida albicans = assay: Antimicrobial activity against Candida albicans by NCCLS method; format: functional, organism-based
Aspergillus fumigatus = assay: Antimicrobial activity against Aspergillus fumigatus by NCCLS method; format: functional, organism-based
[11] = Plasmodium falciparum, W2, 72 h, read-out: IC50
[12] = Plasmodium falciparum, D6, 72 h, read-out: IC50
[13] = Staphylococcus aureus, read-out: IC50
[14] = Leishmania donovani, 48 h, read-out: IC50

Row | Compound | IC50 (LLC-PK1) | selectivity ratio [1] | selectivity ratio [2] | selectivity ratio [3] | IC50 (Plasmodium falciparum [4]; [11]) | selectivity ratio [5] | IC50 (HepG2) | IC50 (Plasmodium falciparum [6]; [12]) | selectivity ratio [7] | IC50 (Vero) | selectivity ratio [8] | IC50 (Leishmania donovani) | IC90 (Leishmania donovani) | IC50 (Leishmania donovani; [14]) | other results
1 | Nc1nccc(-c2cn(C(=O)N3CCOCC3)c3ccccc23)n1 | > 77 µM | > 19.3 | > 19.3 | > 25.1 | 3.08 µM | > 25.1 | > 77 µM | 4.01 µM | > 19.3 | > 77 µM | > 25.1 | Not Active | inactive | – | –
2 | O=C1NC(c2c[nH]c3ccccc23)Nc2ccccc21 (stereo not given) | – | – | – | – | – | – | – | – | – | – | – | – | – | – | Activity (Plasmodium falciparum [4]): inactive; Activity (Plasmodium falciparum [6]): inactive; Activity (Leishmania donovani): inactive
3 | O=C1NC(c2c[nH]c3ccc(Br)cc23)Nc2ccccc21 (stereo not given) | 53 µM | – | – | – | – | – | 73 µM | – | – | > 73 µM | – | – | – | 79.9 µM | IC50 (Plasmodium falciparum [4]): Not Active; MBC (Staphylococcus aureus [9]): inactive; MIC (Staphylococcus aureus [9]): inactive; IC50 (Staphylococcus aureus [9]; [13]): 25.2 µM; MBC (Staphylococcus aureus [10]): inactive; MIC (Staphylococcus aureus [10]): inactive; IC50 (Staphylococcus aureus [10]; [13]): 20.9 µM; IC50 (Cryptococcus neoformans): 14.8 µM; MBC (Cryptococcus neoformans): inactive; MIC (Cryptococcus neoformans): inactive; IC50 (Plasmodium falciparum [6]): Not Active; Activity (Candida albicans): inactive; Activity (Aspergillus fumigatus): inactive
4 | COc1cccc2c1C(=O)c1c(O)c3c(c(O)c1C2=O)C[C@@](O)(C(=O)CO)C[C@@H]3O[C@H]1C[C@H](N)[C@H](O)[C@H](C)O1 [DOXORUBICIN] | < 1 µM | – | – | – | – | – | 2 µM | – | – | 7 µM | – | – | – | – | –
5 | CCOc1ccccc1C(=O)n1cc(-c2ccnc(N)n2)c2ccccc21 | > 70 µM | – | – | – | – | – | > 70 µM | – | – | > 70 µM | – | – | – | 47.4 µM | IC50 (Plasmodium falciparum [4]): Not Active; IC50 (Staphylococcus aureus [9]): Not Active; MBC (Staphylococcus aureus [9]): inactive; MIC (Staphylococcus aureus [9]): inactive; IC50 (Staphylococcus aureus [10]): Not Active; MBC (Staphylococcus aureus [10]): inactive; MIC (Staphylococcus aureus [10]): inactive; IC50 (Cryptococcus neoformans): 45.6 µM; MBC (Cryptococcus neoformans): inactive; MIC (Cryptococcus neoformans): inactive; IC50 (Plasmodium falciparum [6]): Not Active; Activity (Candida albicans): inactive; Activity (Aspergillus fumigatus): inactive
6 | Nc1nccc(-c2cn(Cc3c4ccccc4cc4ccccc34)c3ccc(Br)cc23)n1 | > 52 µM | > 4.7 | > 4.7 | > 4.5 | 11.6 µM | > 4.5 | > 52 µM | 11.1 µM | > 4.7 | > 52 µM | > 4.5 | Not Active | inactive | – | –
7 | N=C(N)c1ccc(OCCCCCOc2ccc(C(=N)N)cc2)cc1 [PENTAMIDINE] | – | – | – | – | – | – | – | – | – | – | – | – | – | – | IC90 (Leishmania donovani; Leishmania donovani, 48 h): 6.21 µM
8 | Nc1nccc(-c2c[nH]c3ccccc23)n1 | 107 µM | > 12.3 | > 11.1 | > 26.8 | 4.44 µM | > 26.8 | > 119 µM | 9.69 µM | > 12.3 | 119 µM | > 24.1 | Not Active | inactive | – | –
9 | Cc1noc(C)c1Cn1cc(-c2ccnc(N)n2)c2cc(Br)ccc21 | > 63 µM | > 6.5 | > 6.5 | > 4.3 | 14.6 µM | > 4.3 | > 63 µM | 9.62 µM | > 6.5 | > 63 µM | > 4.3 | – | inactive | 107 µM | –
10 | Nc1nccc(-c2cn(C(=O)c3ccccc3)c3ccccc23)n1 | > 80 µM | > 7 | > 7 | > 17.4 | 4.58 µM | > 17.4 | > 80 µM | 11.4 µM | > 7 | > 80 µM | > 17.4 | Not Active | inactive | – | –
11 | Nc1nccc(-c2cn(Cc3c4ccccc4cc4ccccc34)c3ccccc23)n1 | > 63 µM | > 8.9 | > 8.9 | > 5.7 | 11 µM | > 5.7 | > 63 µM | 7.06 µM | > 8.9 | > 63 µM | > 5.7 | – | – | 80 µM | –
12 | COc1cccc(C(=O)n2cc(-c3ccnc(N)n3)c3ccccc32)c1 | – | – | – | – | – | – | – | – | – | – | – | – | – | – | Activity (Plasmodium falciparum [4]): inactive; Activity (Plasmodium falciparum [6]): inactive; Activity (Leishmania donovani): inactive
13 | CN1CCN(C(=O)n2cc(-c3ccnc(N)n3)c3ccccc32)CC1 | > 74 µM | > 7.7 | > 7.7 | > 5.1 | 14.5 µM | > 5.1 | > 74 µM | 9.63 µM | > 7.7 | > 74 µM | > 5.1 | Not Active | inactive | – | –
14 | Nc1nccc(-c2cn(C(=O)N3CCOCC3)c3ccc(Br)cc23)n1 | – | – | – | – | – | – | – | – | – | – | – | – | – | – | Activity (Plasmodium falciparum [4]): inactive; Activity (Plasmodium falciparum [6]): inactive; Activity (Leishmania donovani): inactive
15 | O=c1[nH]c(-c2c[nH]c3ccc(I)cc23)nc2ccccc12 | > 65 µM | – | – | – | – | – | > 65 µM | – | – | > 65 µM | – | – | – | 9.17 µM | IC50 (Plasmodium falciparum [4]): Not Active; IC50 (Plasmodium falciparum [6]): Not Active; IC90 (Leishmania donovani; Leishmania donovani, 48 h): 14.2 µM
16 | C[C@@H]1[C@H](O)[C@@H](C)/C=C/C=C/C=C/C=C/C=C/C=C/C=C/[C@H](O[C@@H]2O[C@H](C)[C@@H](O)[C@H](N)[C@@H]2O)C[C@@H]2O[C@](O)(C[C@@H](O)C[C@@H](O)[C@H](O)CC[C@@H](O)C[C@@H](O)CC(=O)O[C@H]1C)C[C@H](O)[C@H]2C(=O)O [AMPHOTERICIN B] | – | – | – | – | – | – | – | – | – | – | – | – | – | – | MBC (Cryptococcus neoformans): 1.35 µM (≈ 1.25 µg/mL); MIC (Cryptococcus neoformans): 1.35 µM (≈ 1.25 µg/mL); IC90 (Leishmania donovani; Leishmania donovani, 48 h): 0.35 µM
17 | Nc1nccc(-c2cn(CN3C(=O)c4ccccc4C3=O)c3ccc(Br)cc23)n1 | – | – | – | – | – | – | – | – | – | – | – | – | – | – | Activity (Plasmodium falciparum [4]): inactive; IC50 (Staphylococcus aureus [9]): Not Active; MBC (Staphylococcus aureus [9]): inactive; MIC (Staphylococcus aureus [9]): inactive; IC50 (Staphylococcus aureus [10]): Not Active; MBC (Staphylococcus aureus [10]): inactive; MIC (Staphylococcus aureus [10]): inactive; IC50 (Cryptococcus neoformans): 26.9 µM; MBC (Cryptococcus neoformans): inactive; MIC (Cryptococcus neoformans): inactive; Activity (Plasmodium falciparum [6]): inactive; Activity (Leishmania donovani): inactive; Activity (Candida albicans): inactive; Activity (Aspergillus fumigatus): inactive
18 | CN1CCN(C(=O)n2cc(-c3ccnc(N)n3)c3cc(Br)ccc32)CC1 | > 60 µM | – | – | – | – | – | > 60 µM | – | – | > 60 µM | – | – | – | 40.5 µM | IC50 (Plasmodium falciparum [4]): Not Active; IC50 (Plasmodium falciparum [6]): Not Active; IC90 (Leishmania donovani; Leishmania donovani, 48 h): 108 µM
19 | Cc1noc(C)c1Cn1cc(-c2ccnc(N)n2)c2ccccc21 | > 78 µM | > 6.3 | > 6.3 | – | – | – | > 78 µM | 12.4 µM | > 6.3 | > 78 µM | – | Not Active | inactive | – | IC50 (Plasmodium falciparum [4]): Not Active
20 | C[C@@H]1CC[C@H]2[C@@H](C)C(=O)O[C@@H]3O[C@@]4(C)CC[C@@H]1[C@]32OO4 [ARTEMISININ] | – | – | – | – | < 0.09 µM | – | – | < 0.09 µM | – | – | – | – | – | – | –
